Test results: ChEMBL document CHEMBL1151665, “Plant anticancer agents, XLI. Cardiac glycosides from Streblus asper” (1985)
Values after ≈ are worked out from the molar mass of the structure shown.

System: KB
Assay: Cytotoxicity against human KB cells
Conditions: read-out: ED50

Row | SMILES | EC50 [µg/mL]
1 | CO[C@H]1[C@H](O[C@H]2CC[C@]3(C=O)[C@H]4CC[C@]5(C)[C@@H](C6=CC(=O)OC6)CC[C@]5(O)[C@@H]4CC[C@]3(O)C2)O[C@H](C)[C@H](O)[C@@H]1OC [STREBLOSIDE] | 0.035 (≈ 0.0605 µM)
2 | CO[C@H]1[C@H](O[C@H]2CC[C@]3(C=O)[C@H]4CC[C@]5(C)[C@@H](C6=CC(=O)OC6)CC[C@]5(O)[C@@H]4CC[C@]3(O)C2)O[C@H](C)[C@@H](O)[C@@H]1OC [MANSONIN] | 0.042 (≈ 0.0726 µM)
